Laboratory results: patent US20050217538A1, “Modified Calcium Phosphate Bone Cement” (TECHNISCHE UNIVERSITAT DRESDEN, priority 2004, published 2005)

Experiment: pH, calcium and phosphate contents of the solution surrounding the cement during the setting process
Assay type: physicochemical
Method: The ion concentrations of the solutions surrounding the cement were determined in that during the setting process samples of the solution were taken regularly and analyzed with regard to pH value (glass electrode), calcium contents and phosphate contents (photometric method), in accordance with the procedure described in connection with Example 2. No deviations into cell and tissue damaging pH ranges (pH<7 and pH>8) were measured. The determined calcium and phosphate ion concentrations were also at a level that is well tolerated by cells and tissue.
The ion concentrations of the solution surrounding the cement were determined in that during the setting process samples of the solution were taken regularly and analyzed with regard to pH value (glass electrode), calcium contents and phosphate contents (photometric method). […]
The ion concentration of the solution surrounding the bone cement was determined in that during the setting process regularly samples of the solution were taken and analyzed with regard to pH value (glass electrode), calcium contents and phosphate contents (photometric method). […] The determined calcium and phosphate ion concentrations were also at a level that is well tolerated by cells and tissue. […]

calcium concentration of the surrounding medium: approximately 2.5 mmol/l
SMILES: Cc1ncc(C[n+]2csc(CCO[P@](=O)(O)OP(=O)(O)O)c2C)c(N)n1 [Thiamine pyrophosphate, thiamine pyrophosphate]
